Here are results for 6 compounds from PMC10525890, “Selective Inhibition of Cardiac Late Na^+ Current Is Based on Fast Offset Kinetics of the Inhibitor” (Biomedicines, 2023).

Several values for one entry are separate records, joined by “and”; a condition that tells them apart may be missing. Equal values may be shown once. Bounds are passed on as bounds.

For assay [1], the system named is late Na+ current (INaL). Nature of the assay: INaL dissected by drug under action potential voltage clamp (APVC) in isolated ventricular myocytes. The assay is classed as cell-based, canine. The following applies: cycle length 700 ms, 37 °C, 1 µM GS967, 20 µM mexiletine, 10 µM quinidine, mean ± SEM. As to the method: (§1) Single canine ventricular myocytes were isolated using a segment perfusion technique, as previously described. Briefly, the LAD coronary artery was cannulated and used for supplying solutions required for the dissociation of the individual cells with minimal injury. After dissection, the tissue was first perfused with a nominally Ca^2+-free solution (Minimum Essential Medium Eagle, Joklik Modification, Sigma-Aldrich Co., St. Louis, MO, USA) for 5 min in order to reduce the Ca^2+ load and also to promote the uncoupling of cell-to-cell junctions. Following this, the perfusate was supplemented with 1 mg/mL collagenase (Type II, final activity of 224 U/mL, Worthington Biochemical Co., Lakewood, NJ, USA) and 0.2% bovine serum albumin (Fraction V., Sigma) in the presence of 50 µM Ca^2+. This step was applied for 30 min to digest the collagen fibers in the extracellular matrix, resulting in the release of individual cells. […] The cells were kept at 15 °C before use, allowing normalization of their intracellular ionic composition. All chemicals applied in these experiments were purchased from Sigma-Aldrich Co. (St. Louis, MO, USA).
(§2) The cells, studied by an inverted microscope, were continuously superfused with a modified Tyrode at a rate of 1–2 mL/min. The modified Tyrode solution contained (in mM): NaCl: 121; KCl: 4; CaCl2: 1.3; MgCl2: 1; HEPES: 10; NaHCO3: 25; glucose: 10; pH: 7.35; osmolarity: 300 ± 3 mOsm. The temperature of this perfusate was set to 37 °C with a temperature controller (Cell MicroControls, Norfolk, VA, USA). Electrical signals were generated, amplified and recorded using a MultiClamp 700A or 700B amplifier under the control of pClamp 10 software (Molecular Devices, Sunnyvale, CA, USA) after analogue-to-digital conversion (Digidata 1440A or 1332, Molecular Devices). The electrodes were manufactured from borosilicate glass. The tip resistance of these micropipettes ranged between 2 and 3 MΩ when filled with pipette solution. Ion currents were recorded under whole-cell voltage clamp conditions. The series resistance was typically 4–8 MΩ. The measurement was discarded when the series resistance changed substantially during the experimental period.
APVC experiments were performed according to the methods described previously. This technique allows for the visualization of various ion currents flowing during an actual ventricular AP by using a selective inhibitor of the respective ion current. In these experiments, therefore, a midmyocardial canine ventricular AP was applied as a command signal. The current traces were continuously recorded before and after a 5 min superfusion with the applied Na^+ channel inhibitor. The drug-sensitive current was obtained by subtracting the post-drug trace from the reference pre-drug trace. When measuring INaL, the external solution was supplemented with 1 µM nisoldipine, 1 µM E4031 and 100 µM chromanol 293B, in order to eliminate contaminations by Ca^2+ and K^+ currents. The pipette solution contained (in mM): K-aspartate, 120; KCl, 30; MgATP, 3; HEPES, 10; Na2-phosphocreatine, 3; EGTA, 0.01; cAMP, 0.002; KOH, 10; at pH = 7.3; osmolarity of 285 mOsm. The amplitude of INaL was measured at 50% duration of the APD90 value of the command AP. The initial 20 ms period following the AP upstroke was excluded from evaluation when determining the current integral in order to eliminate the contribution of INaP. A total of 20 consecutive current traces were averaged and analyzed in each experiment to reduce the noise and the trace-to-trace fluctuations of the AP configuration. Ion currents were normalized to cell capacitance, determined by applying a short (15 ms) hyperpolarizing pulse from +10 mV to −10 mV.

The test system of assay [2] is late Na+ current (INaL). Nature of the assay: INaL under conventional voltage clamp (2 s pulses to −20 mV from −120 mV) in isolated ventricular myocytes. The assay is classed as cell-based, canine. The following applies: for inhibition of INaL current integral: 1 µM GS967, 20 µM mexiletine, 10 µM quinidine; for inhibition of INaL density: at 50 ms, 1 µM GS967 (n = 6), 20 µM mexiletine (n = 5), 10 µM quinidine (n = 6); for INaL current integral (charge carried), post-drug: initial 20 ms excluded, 1 µM GS967 (pre-drug −69.1 ± 7.9), 20 µM mexiletine (pre-drug −68.6 ± 6.2), 10 µM quinidine (pre-drug −68.2 ± 11.7); for INaL density at 50 ms after start of pulse, post-drug: −20 mV from −120 mV, 1 µM GS967 (pre-drug −0.313 ± 0.035), 20 µM mexiletine (pre-drug −0.337 ± 0.035), 10 µM quinidine (pre-drug −0.333 ± 0.043). As to the method: as §1, §2
Rectangular command pulses were applied in conventional voltage clamp experiments to study the effects on INaL at stable test potentials, as described previously. The cells were perfused with HEPES-buffered Tyrode solution containing (in mM): NaCl, 144; NaH2PO4, 0.4; KCl, 4.0; CaCl2, 1.8; MgSO4, 0.53; glucose, 5.5; HEPES, 5.0; at pH = 7.4. This solution contained 1 µM nisoldipine, 0.5 µM HMR-1556 and 0.1 µM dofetilide in order to block the Ca^2+ and K^+ currents. The pipette solution contained (in mM): CsCl, 125; TEACl, 20; MgATP, 5; EGTA, 10; HEPES, 10; at pH = 7.2. Test pulses of 2 s duration were clamped to −20 mV from the holding potential of −120 mV. The total amount of INaL was determined by pharmacological subtraction using a final superfusion with 20 µM TTX. The amplitude of INaL was determined at 50 ms following the start of the pulse. When measuring the charge carried by INaL (integral), the initial 20 ms of the current was excluded from evaluation to minimize the contamination with INaP.

Assay [3] concerns peak Na+ current (INaP) estimated as V+max. Nature of the assay: Steady-state V+max of action potential upstroke (indicator of INaP), right ventricular papillary muscle, sharp microelectrode. The assay is classed as cell-based, canine. To be noted: 1 µM GS967, 20 µM mexiletine, 10 µM quinidine; for V+max block: cycle length 700 ms; for cycle lengths at which V+max was significantly reduced: cycle lengths 0.3-5 s tested. As to the method: (§3) Right ventricular papillary muscles were applied for AP recordings using the conventional sharp microelectrode technique, as described previously. Membrane potential changes were recorded at 37 °C using sharp microelectrodes filled with 3 M KCl (tip resistance 10–20 MΩ) and connected to the input of an amplifier (MDE GmbH, Heidelberg, Germany). The preparations were stimulated with current pulses having durations of 1 ms and amplitudes of 200% diastolic threshold using a pair of platinum electrodes. Before starting the experiment, the preparations were paced at a cycle length of 1 s for at least 60 min allowing equilibration. After this period, the cycle length was sequentially changed between 0.3 and 5 s and the 25th AP was recorded at each cycle length. […] APs were sampled at 100 kHz with an ADA 3300 data acquisition board (Real Time Devices Inc., State Collage, PA, USA) and stored for later analysis.

Assay [4] has the same test system. Nature of the assay: Offset kinetics: restitution of V+max with extra stimuli after 1 Hz trains. The assay is classed as cell-based, canine. To be noted: monoexponential fit, basic cycle length 1 s; 1 µM GS967, 20 µM mexiletine. As to the method:
as §3

The test system is the same in assay [5]. Nature of the assay: Onset kinetics of V+max block during 2.5 Hz train after 1 min rest. To be noted: initial 40 APs, 1 µM GS967, 20 µM mexiletine, 10 µM quinidine. It counts as cell-based, canine. Here is the method: as §3
The onset kinetics of drug action on V^+max were determined by stimulating the preparation at a short cycle length of 0.4 s following a 1 min period of rest and the initial 40 APs were recorded. The V^+max values of the consecutive APs were plotted as a function of the number of the AP within the train. The onset rate constant was determined by fitting the consecutive V^+max values to a monoexponential function.

For another assay, the system named is Nav1.8. The following applies: stated in discussion, no reference given; cited from earlier work.
A further assay relates to Nav2.1. To be noted: stated in discussion, no reference given; cited from earlier work.
In a further assay the test system is Nav1.1. Also noted: method as in PMID 31730442. To be noted: cited from earlier work.
The test system of a further assay is Nav1.5. Also noted: method as in PMID 27136942, PMID 32938719. The following applies: cited from earlier work.
The next assay deals with INaL over INaP. The following applies: cited from earlier work.

Take `FC(F)(F)Oc1ccc(-c2ccc3nnc(C(F)(F)F)n3c2)cc1` [GS967]: in the assay on late Na+ current (INaL) [1], the “drug-sensitive INaL current density measured at 50% duration of APD90 of the command AP” value is listed as −0.37 ± 0.07 A/F and the “drug-sensitive INaL current integral (initial 20 ms excluded)” value (“drug-sensitive INaL current integral” below) is reported as −56.7 ± 9.1 mC/F. For the same compound, in the assay with late Na+ current (INaL) [2], the “inhibition of INaL current integral” value is 79.0%; the “inhibition of INaL density” value is 80.4 ± 2.2%; the “INaL current integral (charge carried), post-drug” value (from here on “INaL current integral … post-drug”) is −15.4 ± 3.9 mC/F; the “INaL density at 50 ms after start of pulse, post-drug” value (from here on “INaL density at 50 ms after start”) is on record as −0.062 ± 0.01 A/F. In addition, in assay [3], the “V+max block” value was 2.3% and the “cycle lengths at which V+max was significantly reduced” value is given as under 500 ms. Besides, in assay [4], the “offset time constant (recovery of V+max)” value is listed as 110 ± 6 ms. Besides, the “onset rate constant of V+max block” value in assay [5] was 6.4 ± 0.9 AP and 5.3±0.8 AP. In addition, the “inhibition of Nav1.8” value in the assay on Nav1.8 is reported as “does not inhibit”. Besides, in the assay on Nav2.1, the “inhibition of Nav2.1” value is reported as “does not inhibit”. Further, the “sensitivity of neuronal Nav1.1” value in the assay on Nav1.1 is given as “sensitive”. Further, the “block of cardiac Nav1.5 channel isoform” value with Nav1.5 is recorded as “strongly block”.
On to `CCCCc1oc2ccccc2c1C(=O)c1cc(I)c(OCCN(CC)CC)c(I)c1` [amiodarone], for which, in the assay on INaL over INaP, the “selectivity for INaL over INaP” value is 13 fold.
As for `O=C(NCC1CCCCN1)c1cc(OCC(F)(F)F)ccc1OCC(F)(F)F` (stereo not drawn) [flecainide], the “selectivity for INaL over INaP” value with INaL over INaP is reported as 3 fold.
In the case of `Cc1cccc(C)c1OCC(C)N` (stereo not drawn) [mexiletine], in the assay on late Na+ current (INaL) [1], the “drug-sensitive INaL current density measured at 50% duration of APD90 of the command AP” value is −0.375 ± 0.07 A/F and the “drug-sensitive INaL current integral” value is reported as −65.2 ± 11.5 mC/F. In the assay with late Na+ current (INaL) [2], the “inhibition of INaL current integral” value turned out to be 46.1%; the “inhibition of INaL density” value is given as 41.9 ± 3.7%; the “INaL current integral … post-drug” value is given as −37.0 ± 4.7 mC/F; the “INaL density at 50 ms after start” value is −0.197 ± 0.026 A/F. In assay [3], the “V+max block” value is reported as 11.4% and the “cycle lengths at which V+max was significantly reduced” value is recorded as under 700 ms. Also, the “offset time constant (recovery of V+max)” value in [4] is reported as 456 ± 284 ms. The “onset rate constant of V+max block” value in [5] is 3.4 ± 0.4 AP.
For the compound `C=C[C@H]1C[N@@]2CC[C@H]1C[C@@H]2[C@@H](O)c1ccnc2ccc(OC)cc12` [quinidine], in the assay on late Na+ current (INaL) [1], the “drug-sensitive INaL current density measured at 50% duration of APD90 of the command AP” value was −0.377 ± 0.06 A/F and the “drug-sensitive INaL current integral” value is on record as −61.2 ± 8.8 mC/F. In the assay on late Na+ current (INaL) [2], the “inhibition of INaL current integral” value stood at 37.1%; the “inhibition of INaL density” value is reported as 43.3 ± 2.2%; the “INaL current integral … post-drug” value is reported as −42.9 ± 9.2 mC/F; the “INaL density at 50 ms after start” value is listed as −0.186 ± 0.02 A/F.
In the case of `COc1ccccc1OCC(O)CN1CCN(CC(=O)Nc2c(C)cccc2C)CC1` (stereo not drawn) [ranolazine], the “selectivity for INaL over INaP” value with INaL over INaP was 38 fold.
